Data: patent publication US7071218B2, “N-substituted heterocycles for the treatment of hypercholesteremia, dyslipidemia and other metabolic disorders; cancer, and other diseases” (Incyte San Diego Incorporated, priority 2001, dated 2006)

How the values were obtained:
[1] = Oral treatment of hypercholesterolemia in Sprague Dawley rats on a high cholesterol atherogenic diet (serum cholesterols); type: in vivo; settings: 20 mg/kg once daily by oral gavage for five days
Protocol: Six week-old male Sprague Dawley rats (HSD, Harlan) were housed in a fixed 12–12-hr artificial light-dark cycle, and maintained on a high cholesterol, atherogenic diet ad libitum (# C13002, Research Diets, New Jersey).
Animals were maintained on this diet throughout the course of the study.
Following six days of maintenance on the high cholesterol diet, the animals were bled from the tail vein (100–200 μL of whole blood) and serum levels of total cholesterol were measured in duplicate (Infinity Cholesterol Kit; Sigma, St. Louis, Mo.). Based on these initial measures, animals were sorted into groups with approximately the same average serum cholesterol levels. Once sorted, the animals were housed three per cage and maintained on the high cholesterol diet ad libitum.
Treatment groups (n=6/group): • 1) High cholesterol fed control (sesame oil) • 2) Compound 7 (20 mg/kg; once daily)
Compound 7 was mixed in sesame oil, and administered to animals in a volume of 3 mL/kg/dose. Compound 7 was administered by oral gavage daily for five consecutive days.
To monitor the effect of Compound 7, animals were bled from the tail vein five days after commencement of oral treatment. Serum cholesterols were measured in duplicate. The blood is kept at room temperature to allow coagulation, after which the serum is separated and assayed for total cholesterol (see FIG. 1), high density lipoprotein cholesterol (see FIG. 2) and low density lipoprotein cholesterol levels (see FIG. 3). […] Similarly, Compound 7 reduced LDL cholesterol levels compared to controls (ANOVA, Fisher's Least significant difference test, p≦0.01). Finally, Compound 7 increased HDL cholesterol levels compared to controls (ANOVA, Fisher's Least significant difference test, p<0.01).

[2] = tested on: MDA-MB-468 breast cancer cells; assay: MTT anti-cancer assay, MDA-MB-468 breast cancer cells; type: cell-based, human; settings: at 10 μM, 6 days
Description: The anti-cancer activity of the compounds of the invention herein have been tested in in vitro assays using a microculture assay with 3-(4,5-dimethylthiazol-2-yl)-2,5-diphenyltetrazolium bromide (“MTT”) a test well known to those skilled in the art. This assay has an advantage over in vivo assay in that results are obtained within a week as opposed to several months. The assay can be carried out in 96-well microtiter plates. The MTT assay is based on the production of a dark blue formazan product by dehydrogenase in the mitochondria of live tumor cells after exposure to drug for 6 days [M. C. […] Thus, only live cells are stained and can be measured at 595 nm. […]
Treatment: Before commencing drug treatment, cells were replenished with media containing 0.5% FCS. […] As an end point, the amount of surviving cells (Live cells) was measured using a standard […] assay (MTT based), and calculated as percentage of cells treated with vehicle (DMSO) alone (% control).
MTT assay: The assay is based on the cleavage of the yellow tetrazolium salt MTT to purple formazan crystals by dehydrogenase activity in active mitochondria. […] The formazan crystals formed are solubilized and the resulting colored solution is quantified using a scanning multiwell spectrophotometer. […]

CN(C)c1cc2c(cc1-c1ccc3cc(/C=C4\SC(=S)N(CC(=O)O)C4=O)ccc3c1)C(C)(C)CCC2(C)C [Compound 7, {5-[6-(3-Dimethylamino-5,5,8,8-tetramethyl-5,6,7,8-tetrahydro-naphthalen-2-yl)-naphthalen-2-ylmethylene]-4-oxo-2-thioxo-thiazolidin-3-yl}-acetic acid]
HDL cholesterol levels compared to controls ([1]; p<0.01): increased
LDL cholesterol levels compared to controls ([1]; p≦0.01): reduced
total serum cholesterol compared to control animals ([1]; p≦0.01): significantly reduced
cells killed [2]: ~80%
